Laboratory results taken from PMC12508156, “Non-canonical dihydrolipoyl transacetylase promotes chemotherapy resistance via mitochondrial tetrahydrofolate signaling” (Nature Communications, 2025).
Residues, ends and D or L forms follow the SMILES beside them.

Legend:
[1] = Organ toxicity in mice (serum ALT, cystatin C, spleen index); type: in vivo
Experimental: K44 containing α-helix in MTHFD2, is marked in purple. The amino acid sequence of DMp39 is shown at the top. b HPLC-based in vitro serum stability assay of DMp39. DMp39 (0.2 mg) was incubated for indicated times with pre-warmed 50% serum and applied to HPLC. […] Liver, kidney, and spleen toxicity were assessed by serum alanine aminotransferase, cystatin C, and spleen index (spleen weight (mg)/body weight (g) x 10), respectively. g Efficacy test of Cy7-DMp39 in vivo. […] MTHFD2 and Ac-K44 MTHFD2 levels in tumors were assessed by co-immunoprecipitation of MTHFD2. […] Representative images of the tumors at the endpoint are presented in (h) and (k). Ac-K44 MTHFD2, MT-CO2, and DLAT levels in both xenograft mouse tumors were assessed by IHC staining (j, m). […]
Mice were subcutaneously injected into the flank with 1 × 10^6 KB-3-1^cisR cells with or without DLAT knockdown. […] The tumor volume of KB-3-1^cisR or PDX tumors was monitored by blinded measurements of two perpendicular diameters and calculated using the formula 4π/3 x (width/2)^2 x (length/2). […] Tumors were collected at the experimental endpoint, and tumor proliferation was assessed using Ki-67 IHC staining. The localization, penetration, and efficacy of DMp39 were monitored by assessing the acetyl-K44 levels in tumors and fluorescence imaging analysis using an IVIS imaging system. […]

[2] = HPLC-based in vitro serum stability assay; type: in vitro ADME; details: 0.2 mg DMp39 incubated for indicated times with pre-warmed 50% serum, remaining peptide by heights of elution peaks, optimal dose of 20 μM
Experimental: Fig. 8 Decoy peptide DMp39 targets DLAT-mediated MTHFD2 acetylation and increases tumor chemosensitivity in vitro and in vivo. a The structure of MTHFD2. K44 containing α-helix in MTHFD2, is marked in purple. The amino acid sequence of DMp39 is shown at the top. b HPLC-based in vitro serum stability assay of DMp39. DMp39 (0.2 mg) was incubated for indicated times with pre-warmed 50% serum and applied to HPLC. […] Liver, kidney, and spleen toxicity were assessed by serum alanine aminotransferase, cystatin C, and spleen index (spleen weight (mg)/body weight (g) x 10), respectively. g Efficacy test of Cy7-DMp39 in vivo. […] MTHFD2 and Ac-K44 MTHFD2 levels in tumors were assessed by co-immunoprecipitation of MTHFD2. […] Representative images of the tumors at the endpoint are presented in (h) and (k). Ac-K44 MTHFD2, MT-CO2, and DLAT levels in both xenograft mouse tumors were assessed by IHC staining (j, m). Scale bars in (h) and (k) represent 10 mm and 25 μm in (j) and (m). Results are presented as mean ± SEM for (h, k) and mean ± SD for the rest. n = 3 per group for (e, f), n = 6 for (g) left, n = 5 for (g) right, n = 6 for (h–j), and n = 5 for (k–m). P values were obtained by one-way ANOVA. Source data are provided as a Source Data file.

With `CC[C@H](C)[C@H](NC(=O)[C@H](CCC(N)=O)NC(=O)[C@H](CCC(N)=O)NC(=O)[C@H](C)NC(=O)[C@H](CC(C)C)NC(=O)[C@H](CCCCN)NC(=O)[C@H](CCCNC(=N)N)NC(=O)CNC(=O)[C@H](CO)NC(=O)[C@@H](NC(=O)[C@@H](N)C(C)C)[C@@H](C)CC)C(=O)N[C@@H](CCCCN)C(=O)N[C@@H](CCC(N)=O)C(=O)N[C@@H](CCC(=O)O)C(=O)N[C@H](C(=O)N[C@@H](CCCNC(=N)N)C(=O)N[C@@H](CCC(N)=O)C(=O)N[C@@H](CCC(=O)O)C(=O)N[C@H](C(=O)N[C@@H](CCC(=O)O)C(=O)N[C@@H](CCC(=O)O)C(=O)N[C@@H](Cc1c[nH]c2ccccc12)C(=O)N[C@H](C(=O)N[C@@H](C)C(=O)N[C@@H](CO)C(=O)NCC(=O)N[C@@H](CC(N)=O)C(=O)N[C@@H](CCCCN)C(=O)N[C@@H](Cc1ccc(O)cc1)C(=O)NCC(=O)N[C@@H](CCCNC(=N)N)C(=O)N[C@@H](CCCCN)C(=O)N[C@@H](CCCCN)C(=O)N[C@@H](CCCNC(=N)N)C(=O)N[C@@H](CCCNC(=N)N)C(=O)N[C@@H](CCC(N)=O)C(=O)N[C@@H](CCCNC(=N)N)C(=O)N[C@@H](CCCNC(=N)N)C(=O)N[C@@H](CCCNC(=N)N)C(=O)O)C(C)C)C(C)C)C(C)C` [DMp39] (H-VISGRKLAQQIKQEVRQEVEEWVASGNKYGRKKRRQRRR-OH) the toxicity markers ([1]; mice, sublethal cisplatin (5 mg/kg, twice/week for 22 days) and/or DMp39) was “remained at baseline levels”, the acute toxicity ([1]; short-term dosing in mice) was “no acute toxicity” and the time-dependent serum stability [2] was “stable”.
